According to publication PMC6611794, “Development of a high-throughput strategy for discovery of potent analogues of antibiotic lysocin E” (Nature Communications, 2019):
“Also recorded” adds a separate entry of the source. Where two headings read alike, the source gives them in different places. Where a SMILES comes first, the peptide text is derived from it. Bridges are numbered along the chain shown (N, C = ends). [ ]: non-standard residue; d: D form. The star is where a group is joined. Hexanoyl(3R-OH,5-Me) = CC(C)C[C@@H](O)CC(=O)*; dNMeF = CN[C@H](Cc1ccccc1)C(=O)O; dOrn = NCCC[C@@H](N)C(=O)O

Assays:
[1] = Description: (§1) Preparation of LUVs consisting of PC/PG/MK-4 or PC/PG/UQ-10. To a solution of egg yolk phosphatidylcholine (9.48 mg, 12.4 µmol) and egg yolk phosphatidylglycerol (9.66 mg, 12.4 µmol) in CHCl3 (0.208 mL) was added a solution of MK-4 (2) or UQ-10 (3) (0.313 µmol) in CHCl3 (21.8 µL). The solution was concentrated, and dried under vacuum to for m a lipid thin film. The thin film was hydrated and suspended in carboxyfluorescein-containing buffer solution (0.500 mL, 5 mM HEPES, 20 mM carboxyfluorescein , pH 7.5) by vortexing and sonication. After five-times freeze-thaw cycles, the lipid suspension was extruded 19 times through a polycarbonate filter with 0.40 µm of pore siz e in the diameter.
(§2) The external carboxyfluorescein -containing buffer was replaced with a carboxyfluorescein -free buffer solution (20 mM HEPES, 1 mM EDTA, pH 7.5) through size exclusion chromatography using disposable PD -10 column. Concentration of egg yolk phosphatidylcholine was determined by using Phospholipid C -Test Wako.
(§3) The final concentration of egg yolk phosphatidylcholine was adjusted to 4.0 µM with the carboxyfluorescein -free buffer solution, and the solution was used for membrane disruption ass ay.
(§4) Membrane disruption assay. […]
(§5) to various concentrations as 5-fold serial dilutions. The solution of peptides (2 µL/well) and the carboxyfluorescein-encapsulated LUV suspension (200 µL/well) were mixed in black polystyrene flat-bottom 96-well plates. The final concentration of peptides ranged from 2970 nM to 0.950 nM. The plates were vortexed at room temperature for 30 min, and then fluorescence of carboxyfluorescein (Ex. 490 nm/Em. 517 nm) of each well was measured at room temperature on Gemini EM microplate reader. Trion X-100/H2O (5/95, 2 µL), MeOH/H2O (4/6, 2 µL), and the LUV suspension were mixed in each plate to determine 100% lysis. MeOH/H2O (4/6, 2 µL) and the LUV suspension were mixed in each plate to determine 0% lysis.
(§6) The membrane disruption activities of tested peptides (I) were normalized against 100% lysis by Triton X -100 […]
(§7) (Imax) and 0% lysis by MeOH/H2O (4/6) (I0) as following, where Ix is the fluorescence intensity (Supplementary Equation 2).
(§8) I = 100 × (Ix – I0) / (Imax – I0) (2)
(§9) The membrane-disrupting activities were evaluated as half-maximal response (EC50, nM) values by means of three replicates. Sigmoidal curve fittings were performed on R2 with drc package (Supplementary Figs S7–S9).3 Two-parameter logistic model was applied for the fitting.

[2] = system: S. aureus Smith ATCC 13709; test: Antimicrobial activity assay of bead-derived peptides (one-bead, microscale); type: cell-based, Staphylococcus aureus; parameters: key to antimicrobial activity: ++: inhibition; +: partial inhibition; -: no inhibition; conditions: for antimicrobial activity: 85% of one-bead-derived crude peptide, 40 μL Mueller Hinton Broth with 10% calf serum, 37 °C, 18 h
Description: Finally, a microscale antimicrobial assay was developed to evaluate the activity of 1 in solution phase.
Antimicrobial activity assay of bead-derived peptides. To the crude peptides in the 96-well round-bottom plate was added DMSO (1 µL/well). To the solution of peptides in each well was added a suspension of S. aureus Smith ATCC 13709 strain in 10% calf serum containing cation adjusted Müller Hinton Broth [40 µL, 2 ×10^5 colony forming units (CFU) , 21 g/L Müller Hinton Broth (Difco), 5 0 mg/L Ca2+ (adjusted with CaCl2• 2H2O), and 25 mg/L Mg 2+ (adjusted with MgCl 2•6H2O)]. The plate was incubated at 37 °C for 18 h, and the precipitation of the grown cells was examined. […]

[3] = Liposomal membrane disruption assay (carboxyfluorescein LUVs); type: biochemical
Description: Preparation of LUVs consisting of PC/PG. Carboxyfluorescein-encapsulated large unilamellar vesicles (LUVs) were prepared according to the thin-film hydration method, followed by extrusion through Nuclepore polycarbonate filters (GE Healthcare) mounted in the mini-extruder apparatus (Avanti Polar Lipids). A solution of egg yolk phosphatidylcholine (9.60 mg, 12.5 µmol) and egg yolk phosphatidylglycerol (9.78 mg, 12.5 µmol) in CHCl3 (0.505 mL) was concentrated, and dried under vacuum to form a lipid thin film. The thin film was hydrated and suspended in carboxyfluorescein-containing buffer solution [0.500 mL, 5 mM 4-(2-hydroxyethyl)-1-piperazineethanesulfonic acid (HEPES), 20 mM carboxyfluorescein, pH 7.5] by vortexing and sonication. After five -times freeze-thaw cycles, the lipid suspension was extruded 19 times through a polycarbonate filter with 0.40 µm of pore size in the diameter. The external carboxyfluorescein -containing buffer was replaced w ith a carboxyfluorescein -free buffer solution [20 mM HEPES, 1 mM ethylenediaminetetraacetic acid (EDTA), pH 7.5] through size exclusion chromatography using disposable PD-10 column (GE Healthcare). Concentration of egg yolk phosphatidylcholine was determined by using Phospholipid C-Test Wako (Fujifilm Wako Pure Chemical). The final concentration of egg yolk phosphatidylcholine was adjusted to 4.0 µM with the carboxyfluorescein-free buffer solution, and the solution was used for membrane disruption assay. […]
as §4, §5, §6, §7, §8, §9

[4] = as above; type: biochemical; remark: listed apart in the source
Description: as §1, §2, §3
as §5, with “Membrane disruption assay. Peptides 1, A1–A22, B1–B5, and C1–C5 were diluted with MeOH/H2O (4/6) to various” for “to various”
as §6, §7, §8, §9

[5] = read-out: EC50 PC/PG/2 1st, PC/PG/2 LUVs, 1st experiment
[6] = read-out: EC50 PC/PG/2 2nd, PC/PG/2 LUVs, 2nd experiment
[7] = read-out: EC50 PC/PG/2 3rd, PC/PG/2 LUVs, 3rd experiment
[8] = read-out: EC50 PC/PG/2, 30 min, room temperature, mean ± SD of three independent experiments
[9] = 30 min, room temperature, mean ± SD of three independent experiments, read-out: EC50 PC/PG
[10] = PC/PG LUVs, 1st experiment, read-out: EC50 PC/PG 1st
[11] = PC/PG LUVs, 2nd experiment, read-out: EC50 PC/PG 2nd
[12] = PC/PG LUVs, 3rd experiment, read-out: EC50 PC/PG 3rd
[13] = 30 min, room temperature, mean ± SD of three independent experiments, read-out: EC50 PC/PG/3
[14] = PC/PG/3 LUVs, 1st experiment, read-out: EC50 PC/PG/3 1st
[15] = PC/PG/3 LUVs, 2nd experiment, read-out: EC50 PC/PG/3 2nd
[16] = PC/PG/3 LUVs, 3rd experiment, read-out: EC50 PC/PG/3 3rd

EC50 [1, 5]	EC50 [1, 6]	EC50 [1, 7]	EC50 [1, 8]	EC50 [3, 9]	EC50 [3, 10]	EC50 [3, 11]	EC50 [3, 12]	EC50 [4, 13]	EC50 [4, 14]	EC50 [4, 15]	EC50 [4, 16]	Structure (SMILES)	selectivity index (EC50 against PC/PG/3 divided by EC50 against PC/PG/2) [1]	growth inhibition of S. aureus Smith ATCC 13709 ([2]; 10% BCS-doped Mueller Hinton Broth (40 μL), natural 1 0.04 μg per well or 85% of single bead-derived 1 (0.21 μg), duplicate)	antimicrobial activity [2]	antimicrobial activity ([2]; listed as KLVI)	antimicrobial activity ([2]; listed as YLOI)
25.9 nM	4.68 nM	6.1 nM	12.2 ± 11.9 nM	975 ± 195 nM	1080 nM	1090 nM	750 nM	92.7 ± 31.3 nM	128 nM	82.1 nM	68.1 nM	CC[C@H](C)[C@@H]1NC(=O)[C@@H](Cc2c[nH]c3ccccc23)NC(=O)[C@@H](CCC(N)=O)NC(=O)[C@H](CCC(=O)O)NC(=O)[C@@H](CCCNC(=N)N)NC(=O)[C@H](CC(C)C)NC(=O)[C@@H](Cc2ccccc2)N(C)C(=O)CNC(=O)[C@H](C)NC(=O)[C@@H](CCCNC(=N)N)NC(=O)[C@@H](NC(=O)C[C@H](O)CC(C)C)[C@@H](C)OC(=O)[C@H]([C@@H](C)O)NC1=O [Peptide A1] ({Hexanoyl(3R-OH,5-Me)}-T[dR]AG[dNMeF]L[dR]E[dQ][dW]IT; ester 1-C)	–	–	+	–	–
31.1 nM	18.3 nM	4.6 nM	18 ± 13.3 nM	714 ± 188 nM	917 nM	680 nM	545 nM	–	89.7 nM	133 nM	57.5 nM	CC[C@H](C)[C@@H]1NC(=O)[C@@H](Cc2c[nH]c3ccccc23)NC(=O)[C@@H](C(C)C)NC(=O)[C@H](CCC(=O)O)NC(=O)[C@@H](CCCNC(=N)N)NC(=O)[C@H](CC(C)C)NC(=O)[C@@H](Cc2ccccc2)N(C)C(=O)CNC(=O)[C@H](C)NC(=O)[C@@H](CCCNC(=N)N)NC(=O)[C@@H](NC(=O)C[C@H](O)CC(C)C)[C@@H](C)OC(=O)[C@H]([C@@H](C)O)NC1=O [Peptide A2] ({Hexanoyl(3R-OH,5-Me)}-T[dR]AG[dNMeF]L[dR]E[dV][dW]IT; ester 1-C)	–	–	++	–	–
7.68 nM	14.6 nM	9.8 nM	10.7 ± 3.5 nM	822 ± 234 nM	1010 nM	900 nM	559 nM	103 ± 85 nM	47.4 nM	201 nM	60.9 nM	CC[C@H](C)[C@@H]1NC(=O)[C@@H](Cc2c[nH]c3ccccc23)NC(=O)[C@@H](C(C)C)NC(=O)[C@H](CCC(=O)O)NC(=O)[C@@H](CCCNC(=N)N)NC(=O)[C@H](CC(C)C)NC(=O)[C@@H](Cc2ccccc2)N(C)C(=O)CNC(=O)[C@H](CCCCN)NC(=O)[C@@H](CCCNC(=N)N)NC(=O)[C@@H](NC(=O)C[C@H](O)CC(C)C)[C@@H](C)OC(=O)[C@H]([C@@H](C)O)NC1=O [Peptide A3] ({Hexanoyl(3R-OH,5-Me)}-T[dR]KG[dNMeF]L[dR]E[dV][dW]IT; ester 1-C)	–	–	–	++ and +	–
24.6 nM	27.8 nM	14.9 nM	22.4 ± 6.7 nM	1120 ± 200 nM	1320 nM	1120 nM	923 nM	441 ± 136 nM	334 nM	595 nM	395 nM	CC[C@H](C)[C@@H]1NC(=O)[C@@H](Cc2c[nH]c3ccccc23)NC(=O)[C@@H](CCCN)NC(=O)[C@H](CCC(=O)O)NC(=O)[C@@H](CCCNC(=N)N)NC(=O)[C@H](CC(C)C)NC(=O)[C@@H](Cc2ccccc2)N(C)C(=O)CNC(=O)[C@H](Cc2ccc(O)cc2)NC(=O)[C@@H](CCCNC(=N)N)NC(=O)[C@@H](NC(=O)C[C@H](O)CC(C)C)[C@@H](C)OC(=O)[C@H]([C@@H](C)O)NC1=O [Peptide A7] ({Hexanoyl(3R-OH,5-Me)}-T[dR]YG[dNMeF]L[dR]E[dOrn][dW]IT; ester 1-C)	19.7	–	–	–	+ and ++

Structure (SMILES)	EC50 [1, 5]	EC50 [1, 6]	EC50 [1, 7]	EC50 [1, 8]	EC50 [3, 9]	EC50 [3, 10]	EC50 [3, 11]	EC50 [3, 12]	EC50 [4, 13]	EC50 [4, 14]	EC50 [4, 15]	EC50 [4, 16]	selectivity index (EC50 against PC/PG/3 divided by EC50 against PC/PG/2) [1]	growth inhibition of S. aureus Smith ATCC 13709 ([2]; 10% BCS-doped Mueller Hinton Broth (40 μL), natural 1 0.04 μg per well or 85% of single bead-derived 1 (0.21 μg), duplicate)	antimicrobial activity [2]	antimicrobial activity ([2]; listed as KLVI)	antimicrobial activity ([2]; listed as YLOI)
CC[C@H](C)[C@@H]1NC(=O)[C@@H](Cc2c[nH]c3ccccc23)NC(=O)[C@@H](CCC(N)=O)NC(=O)[C@H](CCC(=O)O)NC(=O)[C@@H](CCCNC(=N)N)NC(=O)[C@H](CC(C)C)NC(=O)[C@@H](Cc2ccccc2)N(C)C(=O)CNC(=O)[C@H](CO)NC(=O)[C@@H](CCCNC(=N)N)NC(=O)[C@@H](NC(=O)C[C@H](O)CC(C)C)[C@@H](C)OC(=O)[C@H]([C@@H](C)O)NC1=O [Peptide 1, Lysocin E] ({Hexanoyl(3R-OH,5-Me)}-T[dR]SG[dNMeF]L[dR]E[dQ][dW]IT; ester 1-C)	16.7 nM	34 nM	7.9 nM	19.5 nM	559 nM	527 nM	689 nM	460 nM	92 nM	58 nM	167 nM	51.6 nM	4.7	Complete growth inhibition; also recorded: completely inhibit the growth	++	–	–
